Results from PMC7518156 (PeerJ, 2020).
Where two headings read alike, the source gives them in different places.

Assay: Pharmacokinetics of ERL and GEF in Wistar rats after four weeks consumption of water or flavoured water (plasma, UPLC-MS/MS, non-compartmental analysis)
Type: in vivo
Settings: male, Wistar, rat, plasma, 20 mg/kg
Description: Fifty healthy male Wistar rats weighing 250 ± 30 g were obtained from the animal house, College of Pharmacy, King Saud University, Riyadh, Saudi Arabia. Rats were randomly divided into ten cages (n = 5). All individualized ventilated cages (IVC) type IV used in this study were of 20″L × 11″W × 9″ in dimension capable of hosting 4–5 rats. Cages density, bedding, and sanitation frequency was similar in all cages. Cages were housed at room temperature (25 °C) and at an average relative humidity of 50%. Daily observation of all rats was required to ensure that all animals maintained good health. All animal experiments strictly followed the guidelines of the Ethical Committee for Performing Studies on Animals, King Saud University, Riyadh, Saudi Arabia, protocol number KSU-SE-19-13.
Four types of FW, (Aquafina®, a product of Pepsi-Cola®, Saudi Industrial Projects Company, Jeddah, Saudi Arabia) with different flavours, specifically berry (group II), peach (group III), lime (group IV), and pineapple FW (group V) were used. Other components found in FW used in this study include water, preservatives (sodium phosphate, potassium sorbet, sodium benzoate), acidifiers (citric acid, maleic acid), sweeteners (aspartame, potassium acesulfame, allose), acidity regulator (sodium citrate), and antioxidant agent (calcium disodium EDTA). […] The parallel design was used in this study to avoid animals’ physiological changes that could occur in the cross-over design, possibly affecting PK profiles of drug substances. All animals involved in the study were deprived from food, but not water/FW, for at least 12 h before drug administration. […] Drugs were administered to the rats between 7:00 am and 8:00 am. Rats were separately weighed from day one of water/FW consumption prior to drug administration for accurate dose calculation (Fig. S1). Blood samples (0.3 mL) were collected from each rat immediately prior to dosing (0 time) and at predetermined time points (0.5, 1, 2, 3, 5, 24, and 48 h) post drug administration. Blood samples were withdrawn and processed as described previously ([Maher et al., 2017]; [Maher, Alzoman & Shehata, 2016]; [Maher, Alzoman & Shehata, 2018]). Specifically, blood samples were withdrawn from the retro-orbital sinus into a series of heparinized tubes. Plasma was separated from collected blood samples by centrifugation at 4,500 rpm for 30 min where the centrifuge was maintained at 4 °C, and then stored at −20 °C until the day of analysis. […] A mixture of acetonitrile: water (80: 20, v/v), with 0.1% formic acid was used as a mobile phase at a flow rate of 0.2 mL/min ([Maher, Alzoman & Shehata, 2016]).
Cmax and tmax were obtained from the corresponding plasma concentration–time curve (Figs. 1A and 1B). […] The area under the plasma concentration–time curve from time 0 to the last sampling time t, 48 h (AUC0–t) was calculated using the trapezoidal rule. […] AUC0–∞ was also derived by summing up AUC0–t andthe area obtained by extrapolation from time t to ∞. The latter area was calculated from the division of the last measured concentration (Clast) by λz.
Results were presented as mean ± SD. PK parameters of all treated groups following the consumption of FW were compared with control (rats having free access to water), using one-way ANOVA and Bonferroni’s multiple comparisons test. Statistical significance was obtained with p-values ≤ 0.05.

[1] = oral, PKSolver sheet, dose 20 mg/kg, +Berry, read-out: Conc
[2] = oral, PKSolver sheet, dose 20 mg/kg, +Lime, read-out: Conc
[3] = oral, PKSolver sheet, dose 20 mg/kg, +Peach, read-out: Conc
[4] = oral, PKSolver sheet, dose 20 mg/kg, +Pineapple, read-out: Conc
[5] = oral, PKSolver sheet, dose 20 mg/kg, drug alone (water), read-out: Conc
[6] = po, rats, 20 mg/kg oral, +Berry FW, average, read-out: Conc*10 (ng/mL plasma)
[7] = po, rats, 20 mg/kg oral, +Lime FW, average, read-out: Conc*10 (ng/mL plasma)
[8] = po, rats, 20 mg/kg oral, +Peach FW, average, read-out: Conc*10 (ng/mL plasma)
[9] = po, rats, 20 mg/kg oral, +Pineapple FW, average, read-out: Conc*10 (ng/mL plasma)

With `COc1cc2ncnc(Nc3ccc(F)c(Cl)c3)c2cc1OCCCN1CCOCC1` [GEF, Gefitinib] the concentration at 0 h [1] was 39.1 ng/mL, the concentration at 0.5 h [1] was 99.7 ng/mL and the concentration at 1 h [1] was 152 ng/mL. It also gave a concentration at 2 h [1] of 322 ng/mL, a concentration at 3 h [1] of 191 ng/mL and a concentration at 5 h [1] of 150 ng/mL. The concentration at 24 h [1] was 81.4 ng/mL, the concentration at 48 h [1] was 30.2 ng/mL and the concentration at 0 h [2] was 157 ng/mL. For the same compound, the concentration at 0.5 h [2] was 387 ng/mL, the concentration at 1 h [2] was 483 ng/mL and the concentration at 2 h [2] was 574 ng/mL. For the same compound, the concentration at 3 h [2] was 643 ng/mL, the concentration at 5 h [2] was 490 ng/mL and the concentration at 24 h [2] was 216 ng/mL. It also gave a concentration at 48 h [2] of 95.2 ng/mL, a concentration at 0 h [3] of 44.5 ng/mL and a concentration at 0.5 h [3] of 135 ng/mL. For the same compound, the concentration at 1 h [3] was 202 ng/mL, the concentration at 2 h [3] was 365 ng/mL and the concentration at 3 h [3] was 213 ng/mL. The concentration at 5 h [3] was 161 ng/mL, the concentration at 24 h [3] was 85.3 ng/mL and the concentration at 48 h [3] was 25.2 ng/mL. It also gave a Cmax (oral, PKSolver sheet, dose 20 mg/kg, +Pineapple) of 445 ng/mL, a Tmax (oral, PKSolver sheet, dose 20 mg/kg, +Pineapple, read-out: Tmax) of 2 h and a concentration at 0 h [4] of 75.5 ng/mL. The concentration at 0.5 h [4] was 227 ng/mL, the concentration at 1 h [4] was 302 ng/mL and the concentration at 2 h [4] was 445 ng/mL. The concentration at 3 h [4] was 259 ng/mL, the concentration at 5 h [4] was 210 ng/mL and the concentration at 24 h [4] was 152 ng/mL. The concentration at 48 h [4] was 40.2 ng/mL, the concentration at 0 h [5] was 34.5 ng/mL and the concentration at 0.5 h [5] was 142 ng/mL. For the same compound, the concentration at 1 h [5] was 220 ng/mL, the concentration at 2 h [5] was 402 ng/mL and the concentration at 3 h [5] was 169 ng/mL. For the same compound, the concentration at 5 h [5] was 148 ng/mL, the concentration at 24 h [5] was 69.8 ng/mL and the concentration at 48 h [5] was 29.2 ng/mL. For the same compound, the concentration at 0 h [6] was 39.1 ng/mL, the concentration at 0.5 h [6] was 99.7 ng/mL and the concentration at 1 h [6] was 152 ng/mL. The concentration at 2 h [6] was 322 ng/mL, the concentration at 3 h [6] was 191 ng/mL and the concentration at 5 h [6] was 150 ng/mL. The concentration at 24 h [6] was 81.4 ng/mL, the concentration at 48 h [6] was 30.2 ng/mL and the concentration at 0 h [7] was 157 ng/mL. The concentration at 0.5 h [7] was 387 ng/mL, the concentration at 1 h [7] was 483 ng/mL and the concentration at 2 h [7] was 574 ng/mL. It also gave a concentration at 3 h [7] of 643 ng/mL, a concentration at 5 h [7] of 490 ng/mL and a concentration at 24 h [7] of 216 ng/mL. For the same compound, the concentration at 48 h [7] was 95.2 ng/mL, the concentration at 0 h [8] was 44.5 ng/mL and the concentration at 0.5 h [8] was 135 ng/mL. The concentration at 1 h [8] was 202 ng/mL, the concentration at 2 h [8] was 365 ng/mL and the concentration at 3 h [8] was 213 ng/mL. It also gave a concentration at 5 h [8] of 161 ng/mL, a concentration at 24 h [8] of 85.3 ng/mL and a concentration at 48 h [8] of 25.2 ng/mL. For the same compound, the concentration at 0.5 h [9] was 227 ng/mL and the concentration at 1 h [9] was 302 ng/mL.
